Assay [1] relates to HT-29: human adenocarcinoma cell line. Put plainly: Growth inhibition assay (MTT). The format is cell-based. The following applies: HT-29 cells, 96 hr incubation. Here is the method:
Growth inhibition was measured in the HT-29: human adenocarcinoma cell line using the 3-(4,5-Dimethylthiazol-2-yl)-2,5-diphenyltetrazolium bromide (MTT) assay:
Briefly, between 1500 and 2200 cells were seeded into the wells of 96-well microtiter plates and allowed to attach overnight. Test compounds were solubilised at 10 mM in dimethyl sulfoxide (DMSO), diluted in tissue culture media and added to cells at final concentrations of 30, 10, 3, 1, 0.3, 0.1, 0.03 and 0.01 μM in triplicate. Following an incubation period of 96 hr MTT was added to a final concentration of 400 μg/ml and the plates incubated for a further 4 hr. The media/MTT was then aspirated and 150 μl DMSO added. Plates were shaken briefly and the absorbance at 550 nm read using a Labtech LT-4000 plate reader. An extra plate was seeded and the MTT assay was carried out on this plate at the time of drug addition to ascertain an initial absorbance value.
Dose response curves were plotted and the GI50 values (concentration required to inhibit cell growth by 50%) determined for each agent where the absorbance value for control cells minus the initial absorbance was taken as 100% growth.

In assay [2] the test system is hTel, 5′ biotin-d[AG3(T2AG3)3]3′ (quadraplex) versus duplex, 5′biotind[CGA3T3C2TCTGA3T3CG]3′. Put plainly: Surface Plasmon Resonance Assay (SPR). The format is binding. The following applies: HEPES buffer pH 7.3, 25° C. The procedure: Biosensor experiments were conducted in filtered, degassed HEPES buffer (10 mM HEPES, 100 mM KCl, 3 mM EDTA, 0.000 05 v/v of 10% P20 BIACORE surfactant, pH 7.3) at 25° C. The 5′-biotin labeled DNA sequences (Integrated DNA Technologies) were HPLC purified and comprise the following sequences: hTel, ^5′ biotin-d[AG3(T2AG3)3]^3′; duplex, ^5′biotind[CGA3T3C2TCTGA3T3CG]^3′. The experiments were conducted upon a BIAcore 2000 optical biosensor instrument (BIAcore Inc.). Flow cell 1 was left blank as a reference, while flow cells 2-4 were immobilized with DNA on a streptavidin-derivatized gold chip (SA chip from BIAcore) by manual injection of DNA stock solutions (flow rate of 1 μL/min) until the desired value of DNA response was obtained (350-400 RU). Typically, a series of different ligand concentrations (1 nM to 10 μM from 20 mM DMSO stock) were injected onto the chip (flow rate of 50 μL/min, 5-10 min) until a constant steady-state response was obtained followed by a dissociation period (buffer, 10 min). After every cycle, the chip surface was regenerated (20 s injection of 10 mM glycine solution, pH 2.0) followed by running buffer flow. The data were processed using BIAevaluation (BIAcore Inc.) and Kaleidagraph (Synergy Software) software for nonlinear least-squares optimization of the binding parameters.

Where only a bound is given, the exact number is not on record here.

Consider `c1ccc2c(c1)Oc1c3ccccc3nc3cccc-2c13` [Example 1, Chromeno[4,3,2-kl]acridine], for which it took 10.4 µM to inhibit growth in assay [1] by half (GI50).

For the molecule `C[n+]1c2ccccc2c2c3c(cccc31)-c1ccccc1O2.[Cl-]` [Example 2, 8-Methylchromeno[4,3,2-kl]acridin-8-ium chloride], in assay [2], the “Quadraplex:duplex ratio” value stood at 4.75. This molecule yielded a GI50 in assay [1] of 0.93 µM. The molecule `C[n+]1c2ccccc2c2c3c(cccc31)-c1ccccc1S2` [Example 3, 8-methylthiochromeno[4,3,2-kl]acridin-8-ium chloride] registered a GI50 in assay [1] of 3.04 µM. Take `[O-][n+]1c2ccccc2c2c3c(cccc31)-c1ccccc1O2` [Example 4, chromeno[4,3,2-kl]acridine 8-oxide]: the “Quadraplex:duplex ratio” value in assay [2] is given as 7.5. In assay [1], this molecule came in with a GI50 of more than 30 µM. In the case of `CCOC(=O)C[n+]1c2ccccc2c2c3c(cccc31)-c1ccccc1O2` [Example 5, 8-(2-ethoxy-2-oxoethyl)chromeno[4,3,2-kl]acridin-8-ium iodide], the GI50 in assay [1] is 9.88 µM. Molecule `CC(=O)Nc1ccc2c(c1)-c1cccc3nc4ccccc4c(c13)O2` [Example 6, N-(chromeno[4,3,2-kl]acridin-3-yl)acetamide] showed a GI50 in assay [1] of 9.39 µM. The molecule `CC(=O)Nc1ccc2c(c1)-c1cccc3c1c(c1ccccc1[n+]3C)O2` [Example 7, acetamido-8-methylchromeno[4,3,2-kl]acridin-8-ium chloride] yielded a concentration for 50% growth inhibition (GI50) in assay [1] of 0.95 µM. With `COc1ccc2c(c1)-c1cccc3c1c(c1ccccc1[n+]3C)S2` [Example 8, 3-methoxy-8-methylthiochromeno[4,3,2-kl]acridin-8-ium chloride], the 50% growth inhibitory concentration (GI50) in assay [1] worked out at 1.04 µM. In assay [1], `COc1cccc2c1-c1cccc3c1c(c1ccccc1[n+]3C)S2` [Example 9, 4-methoxy-8-methylthiochromeno[4,3,2-kl]acridin-8-ium iodide] showed a concentration for 50% growth inhibition (GI50) of 0.95 µM. With `COc1ccc2c(c1)-c1cccc3c1c(c1ccc(OC)cc1[n+]3C)S2` [Example 10, 3,10-dimethoxy-8-methylthiochromeno[4,3,2-kl]acridin-8-ium chloride], in assay [2], the “Quadraplex:duplex ratio” value came to 7.0. This molecule had a GI50 in assay [1] of 0.27 µM.

As to `COC(=O)c1ccc2c(c1)Sc1c3ccc(OC)cc3[n+](C)c3cccc-2c13` [Example 11, 10-methoxy-2-(methoxycarbonyl)-8-methylthiochromeno[4,3,2-kl]acridin-8-ium chloride], the “Quadraplex:duplex ratio” value in assay [2] is 17.4. Moreover, growth in assay [1] was halved (GI50) at 0.76 µM. For `COC(=O)c1cccc2c1-c1cccc3c1c(c1ccc(OC)cc1[n+]3C)S2` [Example 12, 10-methoxy-4-(methoxycarbonyl)-8-methylthiochromeno[4,3,2-kl]acridin-8-ium chloride], the “Quadraplex:duplex ratio” value in assay [2] was more than 53. In addition, the GI50 in assay [1] stood at 4.49 µM. Take `CC(=O)Oc1ccc2c(c1)-c1cccc3c1c(c1ccccc1[n+]3C)S2` [Example 13, 3-acetoxy-8-methylthiochromeno[4,3,2-kl]acridin-8-ium chloride]: in assay [1], the concentration for 50% growth inhibition (GI50) was determined as 6.17 µM.

Regarding `C[n+]1c2ccccc2c2c3c(cccc31)-c1cc(O)ccc1S2` [Example 14, 3-hydroxy-8-methylthiochromeno[4,3,2-kl]acridin-8-ium chloride], the “Quadraplex:duplex ratio” value in assay [2] is listed as more than 80. The molecule also registered a GI50 in assay [1] of 3.67 µM. For the molecule `COC(=O)c1ccc2c(c1)Sc1c3ccccc3[n+](C)c3cccc-2c13` [Example 15, 2-(methoxycarbonyl)-8-methylthiochromeno[4,3,2-kl]acridin-8-ium chloride], the “Quadraplex:duplex ratio” value in assay [2] is 18.1. Besides, it took 2.99 µM to inhibit growth in assay [1] by half (GI50). As for `COC(=O)c1cccc2c1-c1cccc3c1c(c1ccccc1[n+]3C)S2` [Example 16, 4-(methoxycarbonyl)-8-methylthiochromeno[4,3,2-kl]acridin-8-ium iodide], in assay [1], the 50% growth inhibitory concentration (GI50) worked out at 12.8 µM. Molecule `COCOc1ccc2c(c1)-c1cccc3nc4ccccc4c(c13)S2` [Example 17, 3-(methoxymethoxy)thiochromeno[4,3,2-kl]acridine] registered a GI50 in assay [1] of 1.88 µM. Molecule `CC(=O)Nc1cccc2c1-c1cccc3c1c(c1ccccc1[n+]3C)S2` [Example 18, 4-acetamido-8-methylthiochromeno[4,3,2-kl]acridin-8-ium iodide] yielded a concentration for 50% growth inhibition (GI50) in assay [1] of 9.66 µM.

In assay [1], `COc1ccc2c3c4c(c(OC)ccc4[n+](C)c2c1)-c1ccccc1S3` [Example 19, 5,10-dimethoxy-8-methylthiochromeno[4,3,2-kl]acridin-8-ium iodide] returned a GI50 of 1.03 µM. In assay [1], `COC(=O)c1ccc2c(c1)-c1cccc3c1c(c1ccccc1[n+]3C)S2` [Example 20, 3-(methoxycarbonyl)-8-methylthiochromeno[4,3,2-kl]acridin-8-ium iodide and chloride] returned a 50% growth inhibitory concentration (GI50) of 6.46 µM.
